Assay results from patent US20250170132A1, “SALTS AND POLYMORPHIC FORMS OF MENIN INHIBITORS AND PHARMACEUTICAL COMPOSITIONS THEREOF” (Syndax Pharmaceuticals, Inc., priority 2023, published 2025).

How the values were obtained:
Assay type in all cases: physicochemical
[1] = Aqueous solubility of Compound A salts
Protocol: Solubility of Compound A citrate was determined in 3 different types of matrices: unbuffered water, citrate-buffered solutions from pH 3 to 6, and formulations consisting of citrate, advantame, methylparaben sodium, potassium sorbate, and sodium chloride at pH ranging from 3 to 6. Solubility in unbuffered water at ambient temperature was 38.5 mg/mL.
The target pH was reassessed when the F3 formulation was developed. Compound A citrate solubility studies were performed initially in simple buffered solutions to assess solubility trends as a function of pH. […] The target concentration of Compound A was therefore changed to 40 mg/mL as a compromise between drug substance and preservatives dissolution rate and stability.

[2] = Solution stability studies at accelerated conditions (counterion-related degradation; Impurity A formation vs temperature, pH, time)
Text: FIG. 32 depicts Impurity A formation as a function of temperature, pH, and time in solution.
Compound A monocitrate monohydrate has at least two advantageously and unexpected characteristics. Both alone and in comparison, with Compound A salts known in the art (e.g. Compound A fumarate salts). […] Second, in the manufacturing process, Compound A fumarate requires a separate slurrying step which results in a solvate with an organic solvent. Compound A monocitrate monohydrate salt is isolated directly from ethanol:water, no slurrying step is required. […] Additionally, the Compound A monocitrate forms a monohydrate instead of a solvate with one or more organic molecules.

[3] = Solution stability studies at accelerated conditions, counterion adduct (Impurity A); details: solution stability at accelerated conditions
Text: Compound A monocitrate monohydrate has at least two advantageously and unexpected characteristics. […] Second, in the manufacturing process, Compound A fumarate requires a separate slurrying step which results in a solvate with an organic solvent. Compound A monocitrate monohydrate salt is isolated directly from ethanol:water, no slurrying step is required. […] Additionally, the Compound A monocitrate forms a monohydrate instead of a solvate with one or more organic molecules.
Although this degradation pathway is more accelerated in solution it was also observed in the solid API. Formation of Impurity A was the reason why Compound A sesquifumarate API and drug product were stored at refrigerated temperatures.

[4] = Polymorph screen: slurry at 50° C.; details: slurry 50° C.
Protocol: X-ray powder diffraction (XRPD) • Instrument: Panalytical Empyrean • Parameters: X-Ray tube Cu (Kα radiation); Power: 45 kV×40 mA • Scanning range: 2 to 40 2θ (degree) • Step size: 0.01 degree • Scanning speed: 6.33 degree (20) per minute Thermogravimetric analysis (TGA) • Instrument: TA Instruments Discovery TGA • Parameters: Ramp 10° C. per minute, 25 to 300° C., 50 mL/min N2 sweep Differential scanning calorimetry (DSC) • Instrument: TA Instruments Discovery DSC • Parameters: Ramp 10° C. per minute, up to 300° C. Polarized light microscopy (PLM) • Instrument: Nikon Eclipse Ci POL • Camera: Nikon DS-Fi3 • Software: Nikon NIS Elements
Slurry at 50° C.—About 40 mg API was suspended and stirred in different solvents in 4 mL vials at 50° C. The solids in the slurry were characterized by XRPD after 3 days (Table 34).

## CCN(C(=O)c1cc(F)ccc1Oc1cncnc1N1CC2(CCN(C[C@H]3CC[C@H](NS(=O)(=O)CC)CC3)CC2)C1)C(C)C [Compound A monocitrate monohydrate]
[1]; citrate-buffered solutions and formulations, pH 3 to 6
  Effect of solution pH on solubility: maxima at both pH 3 and 6
[1]; physiological pH range from 1.2 through 6.8
  USP solubility definition: soluble
[1]; simple buffered solutions, pH 3.0 to 6.0
  Solubility trend as a function of pH: highest at pH 3.0
[1]; unbuffered water, ambient temperature, read-out: Solubility
  solubility: 38.5 mg/mL
[2]
  reaction of counterion with the pyrimidine ring of Compound A (degradation): does not react with the pyrimidine ring of Compound A
[3]
  Degradation by reaction of counterion with the pyrimidine ring: absence of this type of degradation
[4]; 1-propanol
  Crystal Form: Form A
[4]; 2-MeTHF
  Crystal Form: Form A
[4]; ACN 9:1
  Crystal Form: Form A
[4]; Anisole
  Crystal Form: Form A
[4]; Cyclohexane
  Crystal Form: Form A
[4]; Dimethoxyethane
  Crystal Form: Form A
[4]; Ethyl acetate/MeOH 3:1
  Crystal Form: Form A
[4]; Heptane
  Crystal Form: Form A
[4]; IPAc
  Crystal Form: Form A
[4]; MEK
  Crystal Form: Form A
[4]; MTBE
  Crystal Form: Form A
[4]; Methyl Acetate
  Crystal Form: Form A
[4]; NMP:CPME (3:7 v/v)
  Crystal Form: Form A
[4]; Propylene glycol:Acetone 1:1
  Crystal Form: Form A
[4]; Propylene glycol:IPA 1:1
  Crystal Form: Form A
[4]; THF 9:1
  Crystal Form: Form A
[4]; Toluene
  Crystal Form: Form A
